Where a name gives a salt, the structure may show the parent alone. Read-outs that look alike come from different tables or passages of the source.
Experiments:
[1] = test system: experimentally-induced interstitial cystitis; settings: rats; frequency of urination decreased, urine volume per urination increased; cited from earlier work
[2] = molecular target: hPDE4D (Homo sapiens, UniProt Q08499); assay: In-vitro real-time enzyme-coupled spectrophotometric assay for PDE4 enzymes (hPDE4D)
[3] = molecular target: hPDE4B (Homo sapiens, UniProt Q07343); assay: In-vitro real-time enzyme-coupled spectrophotometric assay for PDE4 enzymes (hPDE4B)
[4] = test system: patients suffering from asthma and COPD; settings: effect of cilomilast disappeared on long-term trial; cited from earlier work
[5] = read-out: hPDE4D activity, enzyme-coupled NADH assay, absorbance at 340 nm
[6] = read-out: hPDE4B activity, enzyme-coupled NADH assay, absorbance at 340 nm

Chain of hPDE4B (Q07343 whole entry): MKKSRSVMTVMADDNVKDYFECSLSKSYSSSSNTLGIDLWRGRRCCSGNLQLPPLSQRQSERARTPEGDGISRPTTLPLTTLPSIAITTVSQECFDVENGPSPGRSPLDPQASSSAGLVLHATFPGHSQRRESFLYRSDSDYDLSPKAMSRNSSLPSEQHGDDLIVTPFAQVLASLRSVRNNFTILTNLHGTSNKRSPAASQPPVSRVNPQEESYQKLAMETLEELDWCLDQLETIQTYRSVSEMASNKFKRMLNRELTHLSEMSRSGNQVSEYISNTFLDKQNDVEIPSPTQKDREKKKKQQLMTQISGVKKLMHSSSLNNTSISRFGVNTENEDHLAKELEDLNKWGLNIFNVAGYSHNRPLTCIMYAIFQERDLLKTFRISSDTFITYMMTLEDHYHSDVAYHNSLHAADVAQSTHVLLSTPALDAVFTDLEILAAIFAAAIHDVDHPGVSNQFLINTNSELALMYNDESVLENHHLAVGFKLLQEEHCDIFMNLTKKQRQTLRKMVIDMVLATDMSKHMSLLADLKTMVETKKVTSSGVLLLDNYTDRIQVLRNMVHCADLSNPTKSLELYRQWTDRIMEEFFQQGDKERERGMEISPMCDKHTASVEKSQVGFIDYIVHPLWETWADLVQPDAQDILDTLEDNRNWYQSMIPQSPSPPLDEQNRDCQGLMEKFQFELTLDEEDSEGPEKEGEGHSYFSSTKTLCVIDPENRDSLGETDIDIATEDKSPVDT
Chain of hPDE4D (Q08499 whole entry): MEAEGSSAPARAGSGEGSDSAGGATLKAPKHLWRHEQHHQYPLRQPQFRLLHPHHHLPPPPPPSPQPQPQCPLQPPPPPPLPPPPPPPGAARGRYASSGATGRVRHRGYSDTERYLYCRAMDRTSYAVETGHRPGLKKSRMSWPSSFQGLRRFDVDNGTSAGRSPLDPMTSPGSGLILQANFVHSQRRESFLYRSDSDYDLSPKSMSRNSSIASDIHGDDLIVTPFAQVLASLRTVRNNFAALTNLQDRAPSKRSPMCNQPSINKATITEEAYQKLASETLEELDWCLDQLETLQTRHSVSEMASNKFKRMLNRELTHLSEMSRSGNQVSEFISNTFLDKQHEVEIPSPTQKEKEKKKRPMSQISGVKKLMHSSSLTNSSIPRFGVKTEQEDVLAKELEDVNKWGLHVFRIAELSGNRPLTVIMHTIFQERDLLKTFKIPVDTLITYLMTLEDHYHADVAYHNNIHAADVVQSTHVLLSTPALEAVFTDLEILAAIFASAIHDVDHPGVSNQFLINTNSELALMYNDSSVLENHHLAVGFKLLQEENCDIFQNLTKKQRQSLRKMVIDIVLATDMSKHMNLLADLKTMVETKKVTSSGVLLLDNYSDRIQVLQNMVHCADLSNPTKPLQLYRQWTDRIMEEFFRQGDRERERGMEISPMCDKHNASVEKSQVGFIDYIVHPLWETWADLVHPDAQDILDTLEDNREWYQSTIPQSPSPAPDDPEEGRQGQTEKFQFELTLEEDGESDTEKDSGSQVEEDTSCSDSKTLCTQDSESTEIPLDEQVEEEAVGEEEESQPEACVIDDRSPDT

## CCc1ccc2c(-c3cccc(Cl)c3)nc(=O)n(CC)c2n1 [YM976]
[1]
  effect on experimentally-induced interstitial cystitis: ameliorate the effects of experimentally-induced interstitial cystitis in rats

## COc1ccc(Cc2ccc(N(CC(=O)O)C(N)=O)nc2)c(F)c1-c1cccc(Cl)c1 [Example A-057, {1-[5-(3′-chloro-2-fluoro-6-methoxy-biphenyl-3-ylmethyl)-pyridin-2-yl]-ureido}-acetic acid]
[2]
  IC50: < 5 µM
[3]
  IC50: < 5 µM

## CCOC(=O)C(=O)NCc1ccc(Cc2ccc(OC)c(-c3cccc(Cl)c3)c2F)cn1 [Example A-048, N-[5-(3′-Chloro-2-fluoro-6-methoxy-biphenyl-3-ylmethyl)-pyridin-2-ylmethyl]-oxalamic acid ethyl ester]
[2]
  IC50: < 5 µM
[3]
  IC50: < 5 µM

## O=C(Nc1c(Cl)cncc1Cl)c1ccc(OC(F)F)c(OCC2CC2)c1 [roflumilast]
[4]
  clinical effect in asthma and COPD: showed initially excellent results

## COc1ccc(Cn2ccc(C(=O)O)cc2=O)cc1-c1cccc([N+](=O)[O-])c1 [Example A-007, 1-(6-Methoxy-3′-nitro-biphenyl-3-ylmethyl)-2-oxo-1,2-dihydro-pyridine-4-carboxylic acid]
[2]
  IC50: 5 to 20 µM
[3]
  IC50: 5 to 20 µM

## COc1ccc(C(O)c2ccc(NC(=O)NNC(C)=O)cc2)c(F)c1-c1cccc(Cl)c1 (stereo not drawn) [Example A-065, 1-acetic amido-3-{4-[(3′-chloro-2-fluoro-6-methoxy-biphenyl-3-yl)-hydroxy-deutero-methyl]-phenyl}-urea]
[2]; [5]
  IC50: < 5 µM
[3]; [6]
  IC50: 5 to 20 µM

## CCOC(=O)CCCNC(=O)Nc1nnc(Cc2ccc(OC)c(-c3cccc(Cl)c3)c2F)s1 [Example A-030, 4-{3-[5-(3′-Chloro-2-fluoro-6-methoxy-biphenl-3-ylmethyl)-[1,3,4]thiadiazol-2-yl]-ureido}-butyric acid ethyl ester]
[2]
  IC50: < 5 µM
[3]
  IC50: 5 to 20 µM

## COc1ccc(Cc2ccc(O)nc2)c(F)c1-c1cccc(Cl)c1 [Example A-036]
[2]
  IC50: < 5 µM
[3]
  IC50: < 5 µM

## COc1ccc(Cn2cnc3c(Cl)nc(N)nc32)cc1-c1cccc([N+](=O)[O-])c1 [Example A-003, 6-Chloro-9-(6-methoxy-3′-nitro-biphenyl-3-ylmethyl)-9H-purin-2-ylamine]
[2]
  IC50: < 5 µM
[3]
  IC50: 5 to 20 µM

## COc1ccc(Cc2nnc(NC(=O)NCCCC(=O)O)s2)c(F)c1-c1cccc(Cl)c1 [Example A-031, 4-{3-[5-(3′-Chloro-2-fluoro-6-methoxy-biphenyl-3-ylmethyl)-[1,3,4]thiadiazol-2-yl]-ureido}-butyric acid]
[2]
  IC50: < 5 µM
[3]
  IC50: 5 to 20 µM

## COc1ccc(Cc2cnc(N(C)CC(=O)O)nc2)c(F)c1-c1cccc(Cl)c1 [Example A-047, {[5-(3′-Chloro-2-fluoro-6-methoxy-biphenyl-3-ylmethyl)-pyrimidin-2-yl]-methyl-amino}-acetic acid]
[2]
  IC50: < 5 µM
[3]
  IC50: < 5 µM

## COC(=O)c1ccc(Cc2ccc(OC)c(-c3cccc(C(C)=O)c3)c2F)cc1 [Example A-018, 4-(3′-Acetyl-2-fluoro-6-methoxy-biphenyl-3-ylmethyl)-benzoic acid methyl ester]
[2]
  IC50: < 5 µM
[3]
  IC50: 20 to 40 µM

## COc1ccc([C@]2(C#N)CC[C@@H](C(=O)O)CC2)cc1OC1CCCC1 [cilomilast]
[4]
  clinical effect in asthma and COPD: showed initially excellent results

## COc1ccc(Cc2ccc(-c3nnn[nH]3)nc2)c(F)c1-c1cccc(Cl)c1 [Example A-042, 5-(3′-Chloro-2-fluoro-6-methoxy-biphenyl-3-ylmethyl)-2-(1H-tetrazol-5-yl)-pyridine]
[2]
  IC50: < 5 µM
[3]
  IC50: < 5 µM

## COc1ccc(Cc2ccc(NC(=O)NCC(=O)O)nc2)c(F)c1-c1cccc(Cl)c1 [Example A-028]
[2]
  IC50: < 5 µM
[3]
  IC50: < 5 µM

## COc1ccc(Cc2ccc(C(=O)N3CCC(C(=O)O)CC3)nc2)c(F)c1-c1cccc(Cl)c1 [Example A-034, 1-[5-(3′-Chloro-2-fluoro-6-methoxy-biphenyl-3-ylmethyl)-pyridine-2-carbonyl]-piperidine-4-carboxylic acid]
[2]
  IC50: < 5 µM
[3]
  IC50: 20 to 40 µM

## COc1ccc(Cc2ccc(C(=O)O)cc2)c(F)c1-c1cccc(C(C)=O)c1 [Example A-019, 4-(3′-Acetyl-2-fluoro-6-methoxy-biphenyl-3-ylmethyl)-benzoic acid]
[2]
  IC50: < 5 µM
[3]
  IC50: 5 to 20 µM

## FC(F)Oc1ccc(Cc2ccc(-c3nnn[nH]3)nc2)cc1-c1cccc(Cl)c1 [Example A-076, 5-(3′-Chloro-6-difluoromethoxy-biphenyl-3-ylmethyl)-2-(1H-tetrazol-5-yl)-pyridine hydrochloride salt]
[2]
  IC50: < 5 µM
[3]
  IC50: < 5 µM

## COC(=O)c1ccc(Cc2ccc(OC)c(-c3cccc(Cl)c3)c2)cn1 [Example A-073, 5-(3′-chloro-6-methoxy-biphenyl-3-ylmethyl)-pyridine-2-carboxylic methyl ester]
[2]
  IC50: < 5 µM
[3]
  IC50: < 5 µM

## COc1ccc(Cc2cnc(N3CCCC3C(=O)O)nc2)c(F)c1-c1cccc(Cl)c1 (stereo not drawn) [Example A-040, 1-[5-(3′-Chloro-2-fluoro-6-methoxy-biphenyl-3-ylmethyl)-pyrimidin-2-yl]-pyrrolidine-2-carboxylic acid]
[2]
  IC50: < 5 µM
[3]
  IC50: < 5 µM

## COc1ccc(Cc2nnc(NC(=O)NCCC(=O)O)s2)c(F)c1-c1cccc(Cl)c1 [Example A-027, 3-{3-[5-(3′-Chloro-2-fluoro-6-methoxy-biphenyl-3-ylmethyl)-[1,3,4]thiadiazol-2-yl]-ureido}-propionic acid]
[2]
  IC50: < 5 µM
[3]
  IC50: 20 to 40 µM

## COc1ccc(Cc2ccc(C(=O)N3CCC(C(=O)O)C3)nc2)c(F)c1-c1cccc(Cl)c1 (stereo not drawn) [Example A-038, 1-[5-(3′-Chloro-2-fluoro-6-methoxy-biphenyl-3-ylmethyl)-pyridine-2-carbonyl]-pyrrolidine-3-carboxylic acid]
[2]
  IC50: < 5 µM
[3]
  IC50: < 5 µM

## COc1ccc(Cc2ccc(N3CCC3C(=O)O)nc2)c(F)c1-c1cccc(Cl)c1 (stereo not drawn) [Example A-054]
[2]
  IC50: < 5 µM
[3]
  IC50: < 5 µM

## 1-[5-(3′-Chloro-2-fluoro-6-methoxy-biphenyl-3-ylmethyl)-pyrimitlin-2-yl]-piperidine-2-carboxylic acid [Example A-041]
[2]; [5]
  IC50: < 5 µM
[3]; [6]
  IC50: 5 to 20 µM

## COc1ccc(Cc2ccc(N3CC[C@H]3C(=O)O)nc2)c(F)c1-c1cccc(Cl)c1 [Example A-066, (S)-1-[5-(3′-chloro-2-fluoro-6-methoxy-biphenyl-3-ylmethyl)-pyridin-2-yl]-azetidine-2-carboxylic acid]
[2]
  IC50: < 5 µM
[3]
  IC50: < 5 µM

## CCNC(=O)NCc1ccc(Cc2ccc(OC)c(-c3cccc(Cl)c3)c2F)c[n+]1[O-] [Example B-082, 1-[5-(3′-Chloro-2-fluoro-6-methoxy-biphenyl-3-ylmethyl)-1-oxy-pyridin-2-ylmethyl]-3-ethyl-urea]
[2]
  IC50: < 5 µM
[3]
  IC50: < 5 µM

## COc1ccc(Cc2ccc(NC(N)=O)[n+]([O-])c2)c(F)c1-c1cccc(Cl)c1 [Example A-014]
[2]
  IC50: < 5 µM
[3]
  IC50: 5 to 20 µM

Reference: patent US20120213758A1, “BIARYL PDE4 INHIBITORS FOR TREATING PULMONARY AND CARDIOVASCULAR DISORDERS” (DeCODE Genetics enf, priority 2007, published 2012)
